Measured values reported in ChEMBL document CHEMBL4420080, “Inhibitors of sox18 protein activity for treating angiogenesis- and/or lymphangiogenesis-related diseases” (2018).
Active and inactive are the calls of the source. The calls are words filed in the database; no cut-off is given here.

Key:
4T1.2 [1] = assay: Antitumor activity against mouse 4T1.2 cells implanted in BALB/c mouse assessed as median disease latency time at 5 to 50 mg/kg/day for 10 days and measured up to 60 days after tumor inoculation; type: functional, organism-based
4T1.2 [2] = assay: Antitumor activity against mouse 4T1.2 cells implanted in BALB/c mouse assessed as median disease latency time at 25 mg/kg/day for 10 days (Rvb =33 days); type: functional
[3] = Critical micellar concentration of the compound; type: physicochemical
[4] = Cytotoxicity in African green monkey COS7 cells assessed as reduction in cell viability incubated for 24 hrs by Alamar blue dye based assay; design: species or system COS-7; conditions: chlorocebus aethiops
[5] = molecular target: Adenosine receptor A1 (Homo sapiens) (UniProt P30542); assay: Inhibition of human adenosine A1 receptor at 10 uM relative to control
Adenosine receptor A1 (Homo sapiens), sequence (P30542 whole entry): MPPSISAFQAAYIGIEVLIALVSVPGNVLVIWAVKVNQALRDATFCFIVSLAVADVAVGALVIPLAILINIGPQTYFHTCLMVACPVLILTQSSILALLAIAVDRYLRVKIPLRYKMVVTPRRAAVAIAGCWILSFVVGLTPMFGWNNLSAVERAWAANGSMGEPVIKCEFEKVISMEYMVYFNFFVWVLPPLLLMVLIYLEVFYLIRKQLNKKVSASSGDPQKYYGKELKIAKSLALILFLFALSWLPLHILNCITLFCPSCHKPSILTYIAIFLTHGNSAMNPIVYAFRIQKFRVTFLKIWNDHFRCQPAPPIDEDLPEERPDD

[6] = molecular target: Adenosine receptor A2a (Homo sapiens) (UniProt P29274); assay: Inhibition of human adenosine A2A receptor at 10 uM relative to control
Adenosine receptor A2a (Homo sapiens), sequence (P29274 whole entry): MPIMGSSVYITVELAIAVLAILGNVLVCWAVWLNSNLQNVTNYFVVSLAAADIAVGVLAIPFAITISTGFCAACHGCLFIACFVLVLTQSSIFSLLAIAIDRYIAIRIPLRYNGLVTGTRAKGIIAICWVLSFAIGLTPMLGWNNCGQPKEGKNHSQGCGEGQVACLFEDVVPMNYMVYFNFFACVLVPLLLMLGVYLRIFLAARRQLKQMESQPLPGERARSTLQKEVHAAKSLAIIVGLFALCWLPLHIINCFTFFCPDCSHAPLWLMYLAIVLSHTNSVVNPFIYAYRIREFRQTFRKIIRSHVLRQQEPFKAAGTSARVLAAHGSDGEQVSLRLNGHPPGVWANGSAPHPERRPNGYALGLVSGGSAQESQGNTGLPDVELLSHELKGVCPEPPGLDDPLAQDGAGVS

[7] = molecular target: Beta-1 adrenergic receptor (Homo sapiens) (UniProt P08588); assay: Inhibition of human adrenergic beta1 receptor at 10 uM relative to control
[8] = molecular target: D(2) dopamine receptor (Homo sapiens) (UniProt P14416); assay: Inhibition of human dopamine D2S receptor at 10 uM relative to control
D(2) dopamine receptor (Homo sapiens), sequence (P14416 whole entry): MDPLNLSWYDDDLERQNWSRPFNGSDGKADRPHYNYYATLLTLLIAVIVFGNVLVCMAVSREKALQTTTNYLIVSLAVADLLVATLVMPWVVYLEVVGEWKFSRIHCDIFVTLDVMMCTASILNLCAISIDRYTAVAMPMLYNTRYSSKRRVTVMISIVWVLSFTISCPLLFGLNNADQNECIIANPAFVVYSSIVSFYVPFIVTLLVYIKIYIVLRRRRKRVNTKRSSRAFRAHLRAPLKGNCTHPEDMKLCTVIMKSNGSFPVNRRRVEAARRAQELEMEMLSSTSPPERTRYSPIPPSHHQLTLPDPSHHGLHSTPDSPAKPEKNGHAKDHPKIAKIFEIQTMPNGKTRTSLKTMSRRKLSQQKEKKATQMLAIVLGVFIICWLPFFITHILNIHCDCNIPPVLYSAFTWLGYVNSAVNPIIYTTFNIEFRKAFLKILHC

[9] = molecular target: Muscarinic acetylcholine receptor M2 (Homo sapiens) (UniProt P08172); assay: Inhibition of human muscarinic M2 receptor at 10 uM relative to control
[10] = molecular target: Mu-type opioid receptor (Homo sapiens) (UniProt P35372); assay: Inhibition of human mu opioid receptor at 10 uM relative to control
[11] = molecular target: Prostaglandin E2 receptor EP4 subtype (Homo sapiens) (UniProt P35408); assay: Inhibition of human EP4 receptor at 10 uM relative to control
[12] = molecular target: 5-hydroxytryptamine receptor 2B (Homo sapiens) (UniProt P41595); assay: Inhibition of human 5HT2B receptor at 10 uM relative to control
5-hydroxytryptamine receptor 2B (Homo sapiens), sequence (P41595 whole entry): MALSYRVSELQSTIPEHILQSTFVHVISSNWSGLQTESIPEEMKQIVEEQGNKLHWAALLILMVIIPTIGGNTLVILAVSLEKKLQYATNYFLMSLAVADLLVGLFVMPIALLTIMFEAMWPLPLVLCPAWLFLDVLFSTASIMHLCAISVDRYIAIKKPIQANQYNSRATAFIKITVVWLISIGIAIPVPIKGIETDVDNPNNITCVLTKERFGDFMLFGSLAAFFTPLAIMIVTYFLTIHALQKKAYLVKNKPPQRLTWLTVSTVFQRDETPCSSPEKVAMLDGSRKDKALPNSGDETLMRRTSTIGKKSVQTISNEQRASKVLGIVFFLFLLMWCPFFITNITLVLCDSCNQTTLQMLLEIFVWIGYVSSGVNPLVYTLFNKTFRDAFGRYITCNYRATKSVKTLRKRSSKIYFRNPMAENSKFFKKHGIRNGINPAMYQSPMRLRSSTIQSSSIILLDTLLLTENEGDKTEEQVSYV

L-type calcium channel = L-type calcium channel (Rattus norvegicus, UniProt P22002+P27732+Q02485); assay: Inhibition of rat L-type calcium channel at 10 uM relative to control; type: protein assay
[13] = molecular target: Glutamate NMDA receptor (Rattus norvegicus) (UniProt P35439+Q00959+Q00960+Q00961+Q62645+Q8VHN2+Q9R1M7); assay: Inhibition of rat NMDA glutamate receptor at 10 uM relative to control; type: protein-complex assay
[14] = molecular target: Neuronal acetylcholine receptor (Homo sapiens) (UniProt P17787+P30926+P32297+P43681+Q15822+Q9UGM1+Q15825+P30532+P36544+Q9GZZ6+Q05901); assay: Inhibition of human nAChR at 10 uM relative to control
Cricetinae = assay: Inhibition of hamster KATP channel at 10 uM relative to control
Mus musculus = species on record: Mus musculus; assay: Inhibition of mouse phorbol ester receptor at 10 uM relative to control
Rattus norvegicus [15] = species on record: Rattus norvegicus; assay: Inhibition of rat imidazoline I2 receptor at 10 uM relative to control
Rattus norvegicus [16] = species on record: Rattus norvegicus; assay: Inhibition of rat rolipram binding site at 10 uM relative to control
[17] = molecular target: Androgen receptor (Homo sapiens) (UniProt P10275); assay: Inhibition of human androgen receptor at 10 uM relative to control
[18] = molecular target: Estrogen receptor (Homo sapiens) (UniProt P03372); assay: Inhibition of human ERalpha at 10 uM relative to control
Estrogen receptor (Homo sapiens), sequence (P03372 whole entry): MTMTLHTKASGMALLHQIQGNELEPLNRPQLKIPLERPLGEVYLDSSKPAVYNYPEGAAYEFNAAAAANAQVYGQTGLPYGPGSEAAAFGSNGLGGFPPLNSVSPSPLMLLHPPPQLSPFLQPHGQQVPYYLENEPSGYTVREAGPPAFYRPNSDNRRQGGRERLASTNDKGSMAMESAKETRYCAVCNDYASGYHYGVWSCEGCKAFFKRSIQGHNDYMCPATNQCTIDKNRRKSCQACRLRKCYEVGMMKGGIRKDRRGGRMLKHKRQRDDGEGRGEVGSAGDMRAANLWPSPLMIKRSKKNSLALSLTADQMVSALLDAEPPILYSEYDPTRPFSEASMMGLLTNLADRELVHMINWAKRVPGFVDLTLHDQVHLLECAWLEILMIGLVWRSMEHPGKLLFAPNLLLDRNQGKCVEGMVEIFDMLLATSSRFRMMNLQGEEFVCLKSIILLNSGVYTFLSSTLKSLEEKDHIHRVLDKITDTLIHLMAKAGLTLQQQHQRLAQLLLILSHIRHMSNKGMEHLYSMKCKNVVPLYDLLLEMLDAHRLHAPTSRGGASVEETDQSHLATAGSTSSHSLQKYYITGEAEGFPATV

[19] = molecular target: Thyroid Hormone Receptor (Rattus norvegicus) (UniProt P18113+P63059); assay: Inhibition of rat thyroid hormone receptor at 10 uM relative to control; type: protein assay
Thyroid Hormone Receptor (Rattus norvegicus), sequence (P18113 whole entry, looked up): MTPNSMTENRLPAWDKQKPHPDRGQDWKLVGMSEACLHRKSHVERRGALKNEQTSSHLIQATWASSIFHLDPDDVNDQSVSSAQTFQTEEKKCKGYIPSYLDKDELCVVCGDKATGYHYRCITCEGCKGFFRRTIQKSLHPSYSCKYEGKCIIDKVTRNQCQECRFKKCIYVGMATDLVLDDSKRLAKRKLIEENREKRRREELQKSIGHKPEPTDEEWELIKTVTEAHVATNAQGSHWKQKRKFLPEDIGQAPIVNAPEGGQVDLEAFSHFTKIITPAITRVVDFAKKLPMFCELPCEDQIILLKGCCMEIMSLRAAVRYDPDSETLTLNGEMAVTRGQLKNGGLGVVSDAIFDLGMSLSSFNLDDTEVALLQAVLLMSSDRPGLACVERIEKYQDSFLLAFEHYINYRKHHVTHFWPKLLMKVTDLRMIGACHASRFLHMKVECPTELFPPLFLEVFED
Thyroid Hormone Receptor (Rattus norvegicus), sequence (P63059 whole entry, looked up): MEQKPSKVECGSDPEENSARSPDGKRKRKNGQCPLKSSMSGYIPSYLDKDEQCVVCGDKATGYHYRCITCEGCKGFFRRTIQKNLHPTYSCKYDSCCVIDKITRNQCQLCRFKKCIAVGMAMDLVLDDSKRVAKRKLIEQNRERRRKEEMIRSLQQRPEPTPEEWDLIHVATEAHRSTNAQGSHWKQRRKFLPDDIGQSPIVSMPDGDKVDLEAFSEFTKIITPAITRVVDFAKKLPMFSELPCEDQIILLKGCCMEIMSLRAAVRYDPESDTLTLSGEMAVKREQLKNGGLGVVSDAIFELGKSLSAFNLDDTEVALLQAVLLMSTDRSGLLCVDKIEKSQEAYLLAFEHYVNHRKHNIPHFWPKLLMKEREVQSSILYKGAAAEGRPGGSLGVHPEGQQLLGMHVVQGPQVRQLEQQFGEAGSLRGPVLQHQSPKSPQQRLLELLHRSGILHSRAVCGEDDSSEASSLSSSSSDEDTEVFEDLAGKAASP

[20] = molecular target: Histone deacetylase 3 (Homo sapiens) (UniProt O15379); assay: Inhibition of human HDAC3 at 10 uM relative to control
Histone deacetylase 3 (Homo sapiens), sequence (O15379 whole entry): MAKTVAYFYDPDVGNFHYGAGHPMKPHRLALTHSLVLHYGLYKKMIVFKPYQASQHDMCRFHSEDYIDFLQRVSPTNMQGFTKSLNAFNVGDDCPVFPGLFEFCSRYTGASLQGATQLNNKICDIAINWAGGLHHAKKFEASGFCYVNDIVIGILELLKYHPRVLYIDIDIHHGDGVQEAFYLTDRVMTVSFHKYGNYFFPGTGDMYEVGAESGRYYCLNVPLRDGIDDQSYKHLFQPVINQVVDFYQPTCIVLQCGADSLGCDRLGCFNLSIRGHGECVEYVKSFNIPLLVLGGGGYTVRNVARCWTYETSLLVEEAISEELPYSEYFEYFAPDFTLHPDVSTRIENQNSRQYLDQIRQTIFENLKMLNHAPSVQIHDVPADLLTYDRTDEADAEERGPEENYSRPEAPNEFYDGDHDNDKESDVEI

[21] = molecular target: Protein deacetylase HDAC6 (Homo sapiens) (UniProt Q9UBN7); assay: Inhibition of human HDAC6 at 10 uM relative to control
[22] = molecular target: NAD-dependent protein deacetylase sirtuin-1 (Homo sapiens) (UniProt Q96EB6); assay: Inhibition of human Sirtuin1 at 10 uM relative to control
NAD-dependent protein deacetylase sirtuin-1 (Homo sapiens), sequence (Q96EB6 whole entry): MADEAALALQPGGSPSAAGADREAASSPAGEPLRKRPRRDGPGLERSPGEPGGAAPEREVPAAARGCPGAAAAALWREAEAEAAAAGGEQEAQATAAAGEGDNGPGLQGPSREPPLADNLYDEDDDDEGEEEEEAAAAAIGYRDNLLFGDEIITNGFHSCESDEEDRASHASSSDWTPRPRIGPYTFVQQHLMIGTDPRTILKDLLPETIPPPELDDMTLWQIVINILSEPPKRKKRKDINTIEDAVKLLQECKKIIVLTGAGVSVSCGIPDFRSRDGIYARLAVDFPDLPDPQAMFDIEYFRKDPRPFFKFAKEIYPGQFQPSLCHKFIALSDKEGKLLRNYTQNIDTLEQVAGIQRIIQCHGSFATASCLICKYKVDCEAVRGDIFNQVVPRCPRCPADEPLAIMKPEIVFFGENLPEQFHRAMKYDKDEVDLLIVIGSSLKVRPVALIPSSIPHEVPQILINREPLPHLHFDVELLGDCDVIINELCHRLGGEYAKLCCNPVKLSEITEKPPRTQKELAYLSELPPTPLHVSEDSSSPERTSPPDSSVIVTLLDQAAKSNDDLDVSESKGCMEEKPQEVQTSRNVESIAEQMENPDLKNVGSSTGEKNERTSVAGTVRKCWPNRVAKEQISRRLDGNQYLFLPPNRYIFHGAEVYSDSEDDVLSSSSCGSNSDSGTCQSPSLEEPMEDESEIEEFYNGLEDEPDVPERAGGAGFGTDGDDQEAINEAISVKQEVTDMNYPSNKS

[23] = molecular target: Transcription factor SOX-9 (Homo sapiens) (UniProt P48436); assay: Inhibition of SOX9 in HUVEC assessed as reduction of SOX9-SOX9 interactions up to 200 uM incubated for 45 mins by Alpha-screen assay; type: cell-based
Transcription factor SOX-9 (Homo sapiens), sequence (P48436 whole entry): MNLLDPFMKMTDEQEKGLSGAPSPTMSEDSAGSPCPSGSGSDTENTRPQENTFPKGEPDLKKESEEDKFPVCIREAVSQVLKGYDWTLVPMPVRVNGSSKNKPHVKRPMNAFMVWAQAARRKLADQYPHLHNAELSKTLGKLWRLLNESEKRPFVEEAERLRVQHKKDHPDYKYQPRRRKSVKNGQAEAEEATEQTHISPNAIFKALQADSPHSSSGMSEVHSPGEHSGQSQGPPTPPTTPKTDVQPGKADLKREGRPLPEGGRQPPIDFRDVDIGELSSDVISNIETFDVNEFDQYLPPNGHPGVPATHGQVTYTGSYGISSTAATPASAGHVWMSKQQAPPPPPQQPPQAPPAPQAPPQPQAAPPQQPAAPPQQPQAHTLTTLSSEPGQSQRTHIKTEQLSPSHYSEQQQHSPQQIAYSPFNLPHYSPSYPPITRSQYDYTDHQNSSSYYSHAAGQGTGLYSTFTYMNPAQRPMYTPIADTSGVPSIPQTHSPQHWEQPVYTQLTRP

[24] = molecular target: Protein max (Homo sapiens) (UniProt P61244); assay: Inhibition of MAX in HUVEC assessed as reduction of MAX transcriptional activity by genome-wide RNA-seq and ChlP-seq analysis; type: cell-based
[25] = molecular target: Transcription factor SOX-17 (Homo sapiens) (UniProt Q9H6I2); assay: Inhibition of SOX17 (unknown origin) expressed in African green monkey COS7 cells assessed as reduction in SOX17 transcriptional activity at; type: cell-based
Danio rerio [26] = assay: Induction of arterial and venous genes dys-regulation in zebrafish larvae harboring fli1 a:eGFP,-6.5kdrl:mCherry assessed as effect on Ilk1 gene expression at 1.5 uM dosed starting from 16 hpf and measured at 24 and 48 hpf by qRT-PCR analysis; type: functional, organism-based
Danio rerio [27] = assay: Induction of arterial and venous genes dys-regulation in zebrafish larvae harboring fli1 a:eGFP,-6.5kdrl:mCherry assessed as effect on dll4 gene expression at 1.5 uM dosed starting from 16 hpf and measured at 24 and 48 hpf by qRT-PCR analysis; type: functional, organism-based
Danio rerio [28] = assay: Induction of arterial and venous genes dys-regulation in zebrafish larvae harboring fli1 a:eGFP,-6.5kdrl:mCherry assessed as effect on hey1 gene expression at 1.5 uM dosed starting from 16 hpf and measured at 24 and 48 hpf by qRT-PCR analysis; type: functional, organism-based
Danio rerio [29] = assay: Induction of arterial and venous genes dys-regulation in zebrafish larvae harboring fli1 a:eGFP,-6.5kdrl:mCherry assessed as effect on prox1a gene expression at 1.5 uM dosed starting from 16 hpf and measured at 24 and 48 hpf by qRT-PCR analysis; type: functional, organism-based
4T1.2 [30] = assay: Antitumor activity against mouse 4T1.2 cells implanted in BALB/c mouse undergoing sham surgery without excising tumor on day 12 assessed as effect on mouse survival at 25 mg/kg/day for 10 days; type: functional, organism-based
4T1.2 [31] = assay: Inhibition of tumor induced vascular response in mouse 4T1.2 cells implanted BALB/c mouse assessed as reduction in blood vessel coverage at 25 mg/kg/day for 10 days by bright field microscopy; type: functional, organism-based
4T1.2 [32] = assay: Inhibition of tumor induced vascular response in mouse 4T1.2 cells implanted BALB/c mouse assessed as reduction in volume of the blood vessels in tumor region at 25 mg/kg/day for 10 days by ERG/EMCN-detection based immunofluorescent staining relative to control; type: functional; conditions: 4T1.2, 240 h
4T1.2 [33] = assay: Inhibition of tumor induced lymphangiogenesis response in mouse 4T1.2 cells implanted BALB/c mouse assessed as reduction in tumor associated lymphatic vessels at 25 mg/kg/day for 10 days by PROX1/podoplanin detection based immunofluorescent staining relative to control; type: functional; conditions: 4T1.2, 240 h
4T1.2 [34] = assay: Inhibition of tumor induced lymphangiogenesis response in mouse 4T1.2 cells implanted BALB/c mouse assessed as reduction in number of lymphatic endothelial cells at 25 mg/kg/day for 10 days by PROX1/podoplanin detection based immunofluorescent staining relative to control; type: functional; conditions: 4T1.2, 240 h

CMC [3]: > 1000 µM | inhibition [5]: -8% | inhibition [6]: 30% | inhibition [7]: 6% | inhibition [8]: 15% | inhibition [9]: 13% | inhibition [10]: 3% | inhibition [11]: 27% | inhibition [12]: -2% | inhibition at 10 µM (L-type calcium channel): -8% | inhibition [13]: -5% | inhibition [14]: 3% | inhibition (Cricetinae): 10% | inhibition (Mus musculus): 15% | inhibition (Rattus norvegicus [15]): 11% | inhibition (Rattus norvegicus [16]): 1% | inhibition [17]: 1% | inhibition [18]: -10% | inhibition [19]: 36% | inhibition [20]: -4.8% | inhibition [21]: 1.1% | inhibition [22]: 0% | inhibition [23]: inactive | inhibition [24]: inactive | inhibition [25]: inactive
Compound: O=C(O)c1c(O)cccc1CCc1ccc2ccccc2c1
Activity (4T1.2 [1]): Dose-dependent effect | Time (4T1.2 [2]): 33 days | CC50 at 24 h [4]: 117 µM | Activity (Danio rerio [26]): Active | Activity (Danio rerio [27]): Active | Activity (Danio rerio [28]): Active | Activity (Danio rerio [29]): Active | Activity (4T1.2 [30]): inactive | inhibition (4T1.2 [31]): Active | inhibition in vivo at 25 mg/kg/day (4T1.2 [32]): 55% | inhibition in vivo at 25 mg/kg/day (4T1.2 [33]): 65% | inhibition in vivo at 25 mg/kg/day (4T1.2 [34]): 70%
